Assays:
Assay type in all cases: in vivo
[1] = system: Plutella xylostella (Diamond Back Moth); assay: Plutella xylostella (diamond back moth) artificial diet test; details: 120 h, application rate of 200 ppm, L2 larvae, artificial diet treated by pipetting, 5 days after infestation, in comparison to untreated samples, read-out: effect in at least one of the two categories (mortality or growth inhibition)
Experimental: Example B7: Plutella xylostella (Diamond Back Moth)
(§1) 24-well microtiter plates with artificial diet were treated with aqueous test solutions prepared from 10′000 ppm DMSO stock solutions by pipetting. After drying, the plates were infested with L2 larvae (10 to 15 per well). The samples were assessed for mortality and growth inhibition in comparison to untreated samples 5 days after infestation.
(§2) The following compounds gave an effect of at least 80% in at least one of the two categories (mortality or growth inhibition) at an application rate of 200 ppm: P1, P2, P3, P4.

[2] = system: Spodoptera littoralis (Egyptian Cotton Leaf Worm); assay: Spodoptera littoralis (Egyptian cotton leaf worm) test on sprayed cotton leaf discs; details: foliar, 72 h, application rate of 200 ppm, L1 larvae, 3 days after infestation, in comparison to untreated samples, read-out: control (mortality, anti-feeding effect, or growth inhibition)
Experimental: Example B8: Spodoptera littoralis (Egyptian Cotton Leaf Worm)
Cotton leaf discs were placed onto agar in 24-well microtiter plates and sprayed with aqueous test solutions prepared from 10′000 ppm DMSO stock solutions. After drying the leaf discs were infested with five L1 larvae. The samples were assessed for mortality, anti-feeding effect, and growth inhibition in comparison to untreated samples 3 days after infestation. Control of Spodoptera littoralis by a test sample is given when at least one of the categories mortality, anti-feedant effect, and growth inhibition is higher than the untreated sample.

[3] = system: Diabrotica balteata (Corn Root Worm); assay: Diabrotica balteata (corn root worm) test on sprayed maize sprouts; details: 96 h, application rate of 200 ppm, L2 larvae, 4 days after infestation, in comparison to untreated samples, read-out: effect in at least one of the two categories (mortality or growth inhibition)
Experimental: Example B2: Diabrotica balteata (Corn Root Worm)
as §1, with “Maize sprouts placed onto an agar layer in 24-well” for “24-well”, “plates” for “plates with artificial diet”, “spraying.” for “pipetting.”, “(6” for “(10”, “10” for “15”, “4” for “5”
as §2

CCS(=O)(=O)c1cc(-c2cccc(F)c2)cnc1-n1cc2ncc(C(F)(F)F)cc2n1 [P2]
≥ 80%: percent effect (mortality or growth inhibition) at 200 ppm [1] | percent control (mortality, anti-feedant effect or growth inhibition) at 200 ppm [2] | percent effect (mortality or growth inhibition) at 200 ppm [3]

CCS(=O)(=O)c1cc(-c2cccc(F)c2)cnc1-n1cc2ccc(C(F)(F)F)cc2n1 [P4]
≥ 80%: percent effect (mortality or growth inhibition) at 200 ppm [1] | percent control (mortality, anti-feedant effect or growth inhibition) at 200 ppm [2] | percent effect (mortality or growth inhibition) at 200 ppm [3]

CCS(=O)(=O)c1cc(-c2cc(F)cc(F)c2)cnc1-n1cc2ccc(C(F)(F)F)cc2n1 [P3, 2-[5-(3,5-difluorophenyl)-3-ethylsulfonyl-2-pyridyl]-6-(trifluoromethyl)indazole]
≥ 80%: percent effect (mortality or growth inhibition) at 200 ppm [1] | percent control (mortality, anti-feedant effect or growth inhibition) at 200 ppm [2] | percent effect (mortality or growth inhibition) at 200 ppm [3]

CCS(=O)(=O)c1cc(-c2cc(F)cc(F)c2)cnc1-n1cc2ncc(C(F)(F)F)cc2n1 [P1, 2-[5-(3,5-difluorophenyl)-3-ethylsulfonyl-2-pyridyl]-6-(trifluoromethyl)pyrazolo[4,3-b]pyridine]
≥ 80%: percent effect (mortality or growth inhibition) at 200 ppm [1] | percent control (mortality, anti-feedant effect or growth inhibition) at 200 ppm [2] | percent effect (mortality or growth inhibition) at 200 ppm [3]

Source: patent publication US10667518B2, “Pesticidally active heterocyclic derivatives with sulphur containing substituents” (SYNGENTA PARTICIPATIONS AG, priority 2016, dated 2020)
